Laboratory results: patent US12246022B2, “Compositions and methods for treating, preventing or reversing age associated inflammation and disorders” (BROWN UNIVERSITY, priority 2019, dated 2025)
Read-outs that look alike come from different tables or passages of the source. One block for each compound: values may come before it.

Tests used:
[1] = tested on: L1HS sequences; assay: L1 sequence abundance (copy number) by TaqMan qPCR in senescent fibroblasts; assay type: cell-based, human; settings: LF1, IMR90, W138 fibroblasts, 5 μM in medium, 4 months in senescence
Method: The ABI ViiA 7 instrument (Applied Biosystems) was used for all experiments. qPCR of DNA was performed using the TaqMan system (Applied Biosystems) as described by Coufal et al. (2009).^64 […] of purified genomic DNA was used with the indicated primers (see Table 1). Reverse transcription qPCR (RT-qPCR) of RNA was performed using the SYBR Green system (Applied Biosystems). Polyadenylated RNA was used in all experiments assessing transcription of L1 elements, and total RNA was used for all other genes. Total RNA was harvested using the Trizol reagent (Invitrogen). Poly(A) RNA was isolated from total RNA using the NEBNext Poly(A) mRNA Magnetic Isolation Module (New England Biolabs). […] Effectiveness of the DNase digestion was assessed using controls that omitted the RT enzyme.
Primer sets 1 to 5 (Table 1, amplicons A to E in FIG. 1B) to human L1 were designed to preferentially amplify elements of the human-specific L1 HS and evolutionarily recent primate-specific L1 PA(2-6) subfamilies, as follows. […] Sequences of primers corresponding to a consensus of all the murine IFN alpha family genes, as well as to the IFNB1 gene, were obtained from the publication by Gautier et al.^71 For quantifying relative L1 genomic copy number (human cells), the TaqMan multiplex method developed by Coufal et al. (2009)^72 was used. […]

[2] = tested on: SASP response; assay: Senescence entry and SASP gene expression in human fibroblasts (RT-qPCR); assay type: cell-based; settings: LF1, 5 μM
Source text: (§1) To obtain replicatively senescent (RS) cells, LF1 cultures were serially propagated until proliferation ceased. At each passage, after reaching 80% confluence cells were trypsinized and diluted 1:4. […] In early passage cultures, the time between passages is constant at approximately 3 days. […] At this point, after reaching 80% confluence, the cells were replated at 1:2 dilution, and this time was designated as the last passage (point A in FIG. 2A). […] Under this experimental regimen, the majority of the cells in the culture enter senescence within a 3-4 weeks window centered roughly around the time of last passage (grey bar in FIG. 2A). At point B (4 weeks), the cultures were trypsinized and replated as described^60 to eliminate a small fraction of persisting contact-inhibited cells. Cultures were again replated at point C (8 weeks).
(§2) The ABI ViiA 7 instrument (Applied Biosystems) was used for all experiments. qPCR of DNA was performed using the TaqMan system (Applied Biosystems) as described by Coufal et al. (2009).^64 […] of purified genomic DNA was used with the indicated primers (see Table 1). Reverse transcription qPCR (RT-qPCR) of RNA was performed using the SYBR Green system (Applied Biosystems). […] Effectiveness of the DNase digestion was assessed using controls that omitted the RT enzyme.

[3] = tested on: IFN-I response; assay: IFN-I response in senescent and 3X human fibroblasts (RT-qPCR, ELISA, immunoblotting); assay type: cell-based; settings: LF1 and IMR90, 5 μM
Source text: as §1
Oncogene-induced senescence (OIS) was elicited by infecting proliferating LF1 cells with pLenti CMV RasV12 Neo (Addgene plasmid #22259). Generation of lentiviral particles and the infection procedure are described below. At the end of the infection, cells were reseeded at 15-20% confluency and selected with G418 (250 μg/ml) maintained continuously until the end of the experiment Medium was changed every 3 days until the cultures were harvested at the indicated time points. Stress-induced premature senescence (SIPS) was elicited by […] irradiation with 20 Gy given at a rate of 87 cGy/min in one fraction using a cesium-137 gamma source (Nordion Gammacell 40). Cells were 15-20% confluent at the time of irradiation. Medium was changed immediately after irradiation, and at 3-day intervals thereafter. […]
as §2, with “1).” for “1). Reverse transcription qPCR (RT-qPCR) of RNA was performed using the SYBR Green system (Applied Biosystems).”, “enzyme. […]” for “enzyme.”

[4] = tested on: human LINE-1; assay: Islatravir Inhibitory Quotient (IQ) estimate for human LINE-1 in PBMC and brain; settings: for Human LINE-1 IQ C168 hr, PBMC, single dose / Human LINE-1 IQ Cavg (ss), PBMC, q.d.: EFdA-TP EC50 = 316 nM; for Human LINE-1 IQ C168 hr, Brain, single dose / Human LINE-1 IQ Cavg (ss), Brain, q.d.: assume Br./plasma = 0.25
[5] = Table 13 Comparative Studies; cited from earlier work
[6] = tested on: human LINE-1; assay: Human LINE-1 retrotransposition assay, related experiments with islatravir (pYX017, HeLa cells, Tables 12 and 13); assay type: cell-based; settings: for IC50: Homo sapiens
Method: In related experiments, islatravir and other compounds were tested for inhibition of retrotransposition activity of human LINE-1 in HeLa cells according to the following procedure.
HeLa cervical cancer cells were cultivated at 37° C. in a humidified 5% CO2 incubator in Dulbecco's Modified Eagle's Medium (DMEM)—high glucose, with 4500 mg/L glucose, L-glutamine, sodium pyruvate and sodium bicarbonate (Sigma), supplemented with 10% of heat inactivated fetal bovine serum (Thermo Fisher).
Assays were performed using reporter plasmid pYX017 as described (Xie, et al., 2011) with several modifications. The reporter assay was performed in 96-well white optical bottom plates. HeLa cells were seeded in wells 24 h prior to transfection and compound treatment so that cells were approximately 30% confluent on the day of transfection. Different cell plating densities were tested and a density of 2×10^3 cells was determined to be optimal.
Compounds were resuspended in DMSO. Serial dilutions (1:3) were prepared in DMSO. Medium containing different concentrations of the compounds were prepared by adding 2 μl of the compound dilution to 1 ml of the culture medium. The final concentration of DMSO in the medium was 0.2%.
FuGENE® HD transfection reagent (Promega, E2311, Lot 382574 and Lot 397842) was used to transfect the plasmids into the cells. The transfection reagent: DNA mixture was prepared in OpiMEM (Thermo Fisher) according to manufacturer's instructions. Different ratios of transfection reagent to DNA were tested and a ratio of 3:1 was determined to be optimal. Culture medium was removed from the cells and discarded. The transfection reagent: DNA mixture (5 μl) was mixed with the compound containing medium (100 μl/well) and this was added onto the cells of each well. Cells were incubated at 37° C./5% CO2 for different incubation time. A 72 h incubation time was determined to be optimal.
Luciferase reporter activity was quantified with the Dual-Luciferase® Reporter Assay System (Promega) according to manufacturer's instructions for multiwell plates except that cells were lysed directly on the multiwell plate with 30 μl of the passive lysis buffer (PLB) for 20 min at room temperature, with gentle shaking to ensure complete cell lysis.
Firefly and Renilla luciferase signals were measured using a SpectraMax i3x Multi-Mode Microplate Reader. Integration times of 100 ms and 10 ms were used to measure the Firefly and Renilla signals respectively. Relative L1 activity is calculated as Firefly/Renilla *1000 or Firefly/Renilla *10,000. Dose response inhibition data were fit to a four parameter logistic equation using non-linear regression (using Graphpad Prism 8), to determine IC50 values for each inhibitor.

[7] = tested on: HIV WT; settings: Grobler et al. 2019; read-out: HIV WT IC50; cited from earlier work
[8] = human plasma PK, oral dose 0.5-30 mg; cited from earlier work
[9] = cited from earlier work
[10] = daily dose of 2 mg, steady state

SMILES: Nc1ncnc2c1ncn2CCOCP(=O)(O)O [Adefovir]
senescence-induced increase of L1 copy number [1]: significantly prevented this increase | SASP gene expression (IL-6, MMP3) in senescent cells [2]: significantly decreased | interferon gene expression (IFN-α, IFN-β1) in senescent cells [3]: significantly reduced

IC50 ([6]; HeLa, Table 13 Comparative Studies, read-out: Human Line-1 IC50): 5 nM | IC50 ([6]; HeLa, see Table 12, read-out: in vitro IC50 for human LINE-1 in cell-based assay): 1.29 nM | IC50 ([6]; HeLa cells, pYX017, 72 h, n = 3, read-out: Human LINE-1 IC50, Average): 1.29 nM | IC50 ([6]; HeLa cells, pYX017, 72 h, read-out: Human LINE-1 IC50, Exp. 3): 1.4 nM | IC50 ([6]; HeLa cells, pYX017, 72 h, read-out: Human LINE-1 IC50, Exp.2): 1.18 nM
SMILES: C#C[C@]1(CO)O[C@@H](n2cnc3c(N)nc(F)nc32)C[C@@H]1O [Islatravir, 2′-deoxy-4′-ethynyl-2-fluoroadenosine]
Human LINE-1 IQ C168 hr, PBMC, single dose ([4]; Dose 0.5 mg): 1.84 | Human LINE-1 IQ Cavg (ss), PBMC, q.d. ([4]; Dose 0.5 mg): 23.41 | Human LINE-1 IQ C168 hr, Brain, single dose ([4]; Dose 0.5 mg): 0.46 | Human LINE-1 IQ Cavg (ss), Brain, q.d. ([4]; Dose 0.5 mg): 5.85 | Human LINE-1 IQ C168 hr, PBMC, single dose ([4]; Dose 1 mg): 2.61 | Human LINE-1 IQ Cavg (ss), PBMC, q.d. ([4]; Dose 1 mg): 39.79 | Human LINE-1 IQ C168 hr, Brain, single dose ([4]; Dose 1 mg): 0.66 | Human LINE-1 IQ Cavg (ss), Brain, q.d. ([4]; Dose 1 mg): 9.95 | Human LINE-1 IQ C168 hr, PBMC, single dose ([4]; Dose 2 mg): 3.00 | Human LINE-1 IQ Cavg (ss), PBMC, q.d. ([4]; Dose 2 mg): 50.54 | Human LINE-1 IQ C168 hr, Brain, single dose ([4]; Dose 2 mg): 0.75 | Human LINE-1 IQ Cavg (ss), Brain, q.d. ([4]; Dose 2 mg): 12.64 | Human LINE-1 IQ C168 hr, PBMC, single dose ([4]; Dose 10 mg): 15.64 | Human LINE-1 IQ Cavg (ss), PBMC, q.d. ([4]; Dose 10 mg): 295.15 | Human LINE-1 IQ C168 hr, Brain, single dose ([4]; Dose 10 mg): 3.92 | Human LINE-1 IQ Cavg (ss), Brain, q.d. ([4]; Dose 10 mg): 73.79 | Human LINE-1 IQ C168 hr, PBMC, single dose ([4]; Dose 30 mg): 76.88 | Human LINE-1 IQ Cavg (ss), PBMC, q.d. ([4]; Dose 30 mg): 915.31 | Human LINE-1 IQ C168 hr, Brain, single dose ([4]; Dose 30 mg): 19.22 | Human LINE-1 IQ Cavg (ss), Brain, q.d. ([4]; Dose 30 mg): 228.83 | IQ for human LINE-1 in PBMCs [4, 10]: 51 | IQ for human LINE-1 in brain [4, 10]: 13 | huCSF/Plasma [5]: 0.25 | human LINE-1 inhibitor activity compared to the other reverse transcriptase inhibitory drugs tested ([6]; HeLa cells): unexpectedly better human LINE-1 inhibitor activity | IC50 [7]: 0.2 nM | oral clearance [8]: 31 to 45 L/h | Plasma-Brain Kapp ([9]; non-human primate): 0.25 | blood brain barrier penetration ([9]; single oral doses, Rhesus macaque): penetrated the blood brain barrier (BBB)
